Measurements reported in patent US20230025435A1, “COMPOSITIONS AND METHODS FOR INCREASING CELLULAR VITALITY AND LONGEVITY AND DECREASING MOLECULAR AGEING” (JUVN3 Holdings, LLC, priority 2020, published 2023).

Columns and labels:
Assay type in all cases: cell-based
C2C12 cells [1] = test: Autophagy flux (LC3II/I ratio) in C2C12 cells co-incubated with H2O2 (FIG. 6A); conditions: 24 hours with concomitant 400 uM H2O2, BHB 30 ug/mL, CBD 5 ug/mL, selenium 2 ug/mL
Experimental: (§1) Treatments and cells. 6-hour and 24-hour cell culture treatments were with one of the following compounds: 1. Control or “vehicle” (DMSO+phosphate-buffered saline only); 2. Niagen® (nicotinamide riboside (NR)(5 μg/mL); 3. BHB (beta hydroxybutyrate) (30 ug/mL); 4. CBD (cannabidiol) (5 ug/mL); 5. Olive leaf (5 ug/mL); 6. Dynamine (1 ug/mL); 7. Selenium (2 ug/mL); 8. Tributyrin (5 ug/mL)
(§2) Treatment materials and methods. C2C12 cells were treated with compounds 1-8 as listed above for 6 hours without hydrogen peroxide (H2O2) (termed “unperturbed cells” throughout); or cells were treated with compounds 1-8 above for 24 hours with a concomitant 400 uM hydrogen peroxide (H2O2).
The C2C12 line resembles mature muscle cells given that they are multinucleated and are past the rapid growth/proliferation phase.
Autophagy flux (or activity) was assessed by assaying the LC3II/I ratio. This assay has been deemed the “gold standard” in autophagy monitoring (see e.g., Autophagy, 2007 November-December; 3(6):542-5).

C2C12 cells [2] = test: Cellular oxidative stress (4HNE assay) in C2C12 cells with H2O2 (FIG. 6C); conditions: 24 hours with concomitant 400 uM H2O2, BHB 30 ug/mL
Experimental: as §1, §2
Oxidative stress was assessed using the 4HNE assay which is a product of cellular lipid oxidation (see e.g., Am J Physiol Cell Physiol. 2016 Oct. 1; 311(4): C537-C543).

C2C12 cells [3] = test: Total antioxidant capacity (Trolox equivalent antioxidant capacity, TEAC) in C2C12 cells with H2O2 (FIG. 5B); conditions: 24 hours with concomitant 400 uM H2O2, selenium 2 ug/mL, tributyrin 5 ug/mL
Experimental: Treatments and cells. 6-hour and 24-hour cell culture treatments were with one of the following compounds: 1. Control or “vehicle” (DMSO+phosphate-buffered saline only); 2. […]® (nicotinamide riboside (NR)(5 μg/mL); 3. BHB (beta hydroxybutyrate) (30 ug/mL); 4. CBD (cannabidiol) (5 ug/mL); 5. Olive leaf (5 ug/mL); 6. Dynamine (1 ug/mL); 7. […] Tributyrin (5 ug/mL) Treatment materials and methods. C2C12 cells were treated with compounds 1-8 as listed above for 6 hours without hydrogen peroxide (H2O2) (termed “unperturbed cells” throughout); or cells were treated with compounds 1-8 above for 24 hours with a concomitant 400 uM hydrogen peroxide (H2O2). Total antioxidant capacity was assessed using a Trolox equivalent antioxidant capacity (TEAC) assay.

SMILES | autophagy (LC3II/I ratio) (C2C12 cells [1]) | cellular oxidative stress (4HNE) (C2C12 cells [2]) | total antioxidant capacity (Trolox) (C2C12 cells [3]) | total antioxidant capacity (Trolox) (C2C12 cells [3]; listed as Selenium) | total antioxidant capacity (Trolox) (C2C12 cells [3]; listed as Tributyrin)
C=C(C)[C@@H]1CCC(C)=C[C@H]1c1c(O)cc(CCCCC)cc1O [CBD, cannabidiol] | increased autophagy |  |  |  | 
CC(O)CC(=O)O (stereo not drawn) [BHB, beta hydroxybutyrate] | increased autophagy | decrease cellular oxidative stress |  |  | 
[Se] [selenium, Selenium] | increased autophagy |  | increase (e.g., restore) total antioxidant activity | increase or restore antioxidant capacity | 
CCCC(=O)OCC(COC(=O)CCC)OC(=O)CCC [tributyrin, Tributyrin] |  |  | increase (e.g., restore) total antioxidant activity |  | increase or restore antioxidant capacity
